Columns and labels:
5-HT1A receptor [1] = molecular target: T1, 5-HT1A receptor (Homo sapiens, UniProt P08908); assay: Forskolin-induced cAMP accumulation in T-REx 293 cells expressing both 5-HT1A-HALO and mGlu4R-SNAP, 5-HT1A agonist response; type: cell-based; settings: +Tet
T1 construct: expressed in transfected cells
T1 sequence (P08908 1-422): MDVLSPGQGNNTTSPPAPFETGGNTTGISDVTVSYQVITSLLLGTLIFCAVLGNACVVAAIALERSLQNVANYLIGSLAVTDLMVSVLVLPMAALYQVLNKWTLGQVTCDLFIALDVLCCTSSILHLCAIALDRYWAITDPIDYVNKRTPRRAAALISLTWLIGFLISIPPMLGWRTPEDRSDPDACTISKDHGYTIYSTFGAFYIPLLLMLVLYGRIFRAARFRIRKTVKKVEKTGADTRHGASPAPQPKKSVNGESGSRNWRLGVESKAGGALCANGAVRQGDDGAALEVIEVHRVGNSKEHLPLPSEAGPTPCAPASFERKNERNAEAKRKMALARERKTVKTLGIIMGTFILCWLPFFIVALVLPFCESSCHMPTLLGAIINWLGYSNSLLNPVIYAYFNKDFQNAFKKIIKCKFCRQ
Protocol: (§1) The cell line was maintained in DMEM medium supplemented with 10% FBS (tetracycline free), 2 mM Glutamax I (Lonza,), 100 µg/mL Zeocin and 10 µg/mL blasticidin (Invitrogen). T-REx 293 cells were treated with a mixture of plasmids (0.1 µg pTet-SNAP-GRM4 and 0.9 µg pOG44) and GeneJuice transfection reagent according to the manufacturer’s instructions (Novagen). After 48 h, selection for the stably integrated plasmid with 100 µg/mL hygromycin B (Invitrogen) began. In parallel experiments, the HALO-5-HT1A plasmid was introduced into T-REx 293 cells or cells with the inducible expression of SNAP-GRM4 to generate a cell line that expressed both receptors. In the double expression system (as well as in other experiments), 5-HT1A was stably expressed, and mGlu4R expression was induced by tetracycline treatment (+ Tet; 0.75 µg/mL) (Fig. S3). One additional cell line was generated by cloning the 5-HT1A insert (BamHI/XhoI) into the pSNAPf vector ([…]).
(§2) Each experiment was performed three times (n = 3), and each data point was in triplicate. The curves for the data shown were fitted to a three-parameter logistic equation, allowing for the determination of IC50 values and Emax. For comparison of IC50 between the curves, t test was applied. The ONE way ANOVA and Tukey’s post hoc test were used for in vitro receptor interaction assays statistics.

mGlu4R [2] = assay: Forskolin-induced cAMP accumulation in T-REx 293 cells expressing both 5-HT1A-HALO and mGlu4R-SNAP, L-glutamate response; type: cell-based, human; settings: without tetracycline induction (−Tet); curve parameters impossible to determine
Protocol: as §1, §2

mGlu4R [3] = molecular target: T2, mGlu4R (Homo sapiens, UniProt Q14833); assay: as above; type: cell-based; settings: SSZ 100 μM; +Tet
T2 construct: expressed in transfected cells
Protocol: as §1, §2

[4] = molecular target: T3, hmGlu4 receptor homodimer (Homo sapiens, UniProt Q14833); assay: HTRF-FRET receptor interaction assay, mGlu4-SNAP homodimers (Snap-Tb/Snap-Green); type: cell-based; settings: in presence of L-glutamate; VU0155041 10 μM, LY341495 100 µM
T3 construct: expressed in transfected cells
Protocol: The intermolecular interaction was presented as a ratio (FRET/Snap-Tb) x10e^4.
A homogenous time-resolved FRET assay was used to analyze the interaction between receptors labeled with Snap-Tb and Snap-green. For each experiment, a group named “mix cells” (1:1) was added, which corresponded to a mixture of cells separately labeled with one substrate depending on the experimental procedure and mixed immediately before FRET measurement.

5-HT1A receptor [5] = molecular target: T1, 5-HT1A receptor; assay: Forskolin-induced cAMP accumulation (HTRF) in T-REx-293-h5-HT1A-SNAP cells; type: cell-based; settings: cAMP assay, Fig. 1b
Protocol: as §1, §2

T2 sequence (Q14833 33-912): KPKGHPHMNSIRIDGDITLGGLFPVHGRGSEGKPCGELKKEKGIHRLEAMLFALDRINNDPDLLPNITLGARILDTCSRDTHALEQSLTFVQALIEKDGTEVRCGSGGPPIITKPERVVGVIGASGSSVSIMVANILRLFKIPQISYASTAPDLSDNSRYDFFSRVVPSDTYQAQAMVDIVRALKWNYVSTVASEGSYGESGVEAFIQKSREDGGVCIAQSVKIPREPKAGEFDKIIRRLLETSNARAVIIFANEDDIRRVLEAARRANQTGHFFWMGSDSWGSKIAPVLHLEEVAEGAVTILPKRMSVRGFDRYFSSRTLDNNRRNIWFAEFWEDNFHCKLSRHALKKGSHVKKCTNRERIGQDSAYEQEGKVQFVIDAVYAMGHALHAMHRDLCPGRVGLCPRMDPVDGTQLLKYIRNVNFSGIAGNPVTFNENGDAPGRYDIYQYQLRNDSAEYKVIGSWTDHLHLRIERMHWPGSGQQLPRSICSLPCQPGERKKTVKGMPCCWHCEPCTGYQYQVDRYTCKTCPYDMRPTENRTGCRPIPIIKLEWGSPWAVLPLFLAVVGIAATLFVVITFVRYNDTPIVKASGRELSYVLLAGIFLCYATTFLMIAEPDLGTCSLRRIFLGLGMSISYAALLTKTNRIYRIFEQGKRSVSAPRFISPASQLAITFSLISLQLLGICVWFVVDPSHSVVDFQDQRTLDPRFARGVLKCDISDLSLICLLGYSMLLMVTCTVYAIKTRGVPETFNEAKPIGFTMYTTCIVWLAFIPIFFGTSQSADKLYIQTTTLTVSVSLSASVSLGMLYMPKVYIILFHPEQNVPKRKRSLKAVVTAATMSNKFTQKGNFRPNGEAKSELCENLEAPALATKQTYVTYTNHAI
T3 sequence (Q14833 33-912): as above

Structure (SMILES): CCCN(CCC)[C@@H]1CCc2cccc(O)c2C1 [(R)-(+)-8-OH DPAT, (R)-(+)-8-hydroxy-DPAT]
- Effect on forskolin-stimulated cAMP accumulation after induction of mGlu4 receptor expression (5-HT1A receptor [1]): abolished

Structure (SMILES): N[C@@H](CCC(=O)O)C(=O)O [L-glutamate]
- Effect on forskolin-induced cAMP accumulation without induction of mGlu4 receptor expression (mGlu4R [2]): not effective

Structure (SMILES): O=C(O)c1cc(/N=N/c2ccc(S(=O)(=O)Nc3ccccn3)cc2)ccc1O [Sulfasalazine, sulfasalazine]
- Effect of sulfasalazine treatment on the dose–response curve of glutamate (mGlu4R [3]): shifted the dose–response curve of glutamate to the left
- Effect of sulfasalazine treatment on 5-HT1A activity in presence of mGlu4 receptors (5-HT1A receptor [1]; SSZ 100 μM, versus cells without SSZ): significantly enhanced

Structure (SMILES): O=C(Nc1cc(Cl)cc(Cl)c1)[C@H]1CCCC[C@H]1C(=O)O [VU0155041]
- Effect on FRET signal / interaction between mGluR4 monomers [4]: enhanced interaction

Structure (SMILES): COc1ccccc1N1CCN(CC(C(=O)NC(C)(C)C)c2ccccc2)CC1 (stereo not drawn) [WAY100135]
- Effect of antagonist on the agonist (R)-(+)-8-OH DPAT Emax (5-HT1A receptor [5]): totally abolished

Reference: article PMC7550284, “The functional cooperation of 5-HT1A and mGlu4R in HEK-293 cell line” (Pharmacological Reports, 2020)
